Laboratory results as given in US9801844B2, “Methods and compositions for the treatment of cancer” (priority 2012, dated 2017).
Values joined by “and” are separate entries in the source; they are usually repeats but may differ in a detail not shown here. Equal values may be shown once. Read-outs that look alike come from different tables or passages of the source. Blank lines part the entries; values can stand above or below the compound they belong to.

Key:
[1] = system: SKOV3 (Her2 overexpressing) human ovarian cancer cells; test: MTT cell proliferation assay on SKOV3 cells; format: cell-based; conditions: SKOV3, 96 h
Procedure: SKOV3 (Her2 overexpressing) ovarian cancer cells (ATCC, Manassas, Va.), were grown in McCoy's media (Gibco BRL Life Technologies, Inc., Rockville, Md.) containing 10% (v/v) fetal bovine serum (FBS) (Gibco BRL) at 37° C., 5% C02, plus Penn-Strep (Sigma).
The MTT [3-(4,5-dimethyl-2-thiazol)-2,5-diphenyl-2H tetrazolilum bromide] (Dojindo; Tokyo, Japan) cell proliferation assay system (Roche Diagnostic, Mannheim, Germany) was used to determine the sensitivity of the cell lines to agents. Cells were seeded at 1×10^4 cells/well in 96-well plates and allowed to attach for 24 h. The medium was replaced with fresh medium containing DMSO or compound. The cells were treated for 96 h, after which the media was replaced with fresh media; the cells were incubated with MTT reagents and the absorbance read at 650 and 575 nm. The 650 reading was subtracted from the 575 reading to correct for background absorbance.

[2] = system: MDA-MB-453 Her2 overexpressing human breast cancer cells; test: MTT cell proliferation assay on MDA-MB-453 cells; format: cell-based; conditions: MDA-MB-453 cells, MTT assay; for IC50: read-out: IC50, concentration that caused 50% inhibition of cell proliferation
Procedure: Cells were exposed to increasing concentrations of agents for 96 h and the number of viable cells determined by the MTT assay.

[3] = system: MDA-MB-468 triple negative breast cancer cells; test: MTT cell proliferation assay on MDA-MB-468 cells; format: cell-based, human; conditions: Homo sapiens, MDA-MB-468, MDA-MB-468 cells, MTT assay; read-out: IC50 growth inhibition
Procedure: MDA-MB-453 (ER negative, Her2 overexpressing), MDA-MB-468 (triple negative) and MCF7 (ER positive, Her2 low) cells, HT29 (p53 positive human colon cancer cells) (ATCC, Manassas, Va.) were grown in Dulbecco's Modified Eagle's medium (DMEM) (Gibco BRL Life Technologies, Inc., Rockville, Md.) containing 10% (v/v) fetal bovine serum (FBS) (Gibco BRL) at 37° C., 5% C02. SUM 149 (Her2 overexpressing, ER low) (the gift of Dr. R. Parsons, Columbia University Medical Center, New York, N.Y.) were cultivated in Ham's F-12 medium with 10% FBS. MCF7 and MCF7/Her2-18 (MCF7 cells transfected with a full length Her2 cDNA coding region, 45-fold increase Her2) were the kind gift of Dr. Dennis Slamon (Los Angeles, Calif.). These cells were maintained in RPMI supplemented with 10% FBS plus glutamine (1%) and PSF (1%) (Gibco, Rockville Md.).
MTT assay: the MTT {3-(4,5-dimethyl-2-thiazol)-2,5-diphenyl-2H tetrazolilum bromide} (Dojindo; Tokyo, Japan) cell proliferation assay system (Roche Diagnostic, Mannheim, Germany) was used to determine the sensitivity of the various cell lines to agents. Cells were seeded at 1×10^4 cells/well in 96-well plates and allowed to attach for 24 h. The medium was replaced with fresh medium containing DMSO or compound. The cells were treated for 96 or 120 h, after which they were incubated with MTT reagents and the absorbance read at 650 and 575 nm. For cell growth assays, the data are expressed as mean+/−standard deviation. Control and treated cells were compared using the student's t-test (p<0.05).
To determine the Combination Index (CI), cells were treated with all combinations of 4 or 5 concentrations of each of the agents tested and a solvent control. The results of the MTT assay were analyzed for possible synergistic effects using the median effect principle. Variable ratios of drugs were employees and mutually exclusive equations were assumed.

Na+-K+-ATPase = test: Enzymatic assay of ATPase activity; format: biochemical; conditions: purified enzyme, in vitro; read-out: 50% inhibition, IC50 value, of Na+-K+-ATPase activity
Procedure: The enzymatic assay of ATPase (adenosine 5′-triphosphatase, EC 3.6.1.3) followed the Sigma Prod. No. A-7510 protocol (Sigma-Aldrich, St. Louis, Mo., USA). Agents (0.05 ml) were pipetted with ATPase (0.05 ml, 0.5 units/ml, Sigma-Aldrich, St. Louis, Mo., USA), mixed and equilibrated for 5 min at 37° C. Taussky-Shorr reagent (10 ml of 10% ammonium molybdate in 10 N H2SO4) was pipetted to 70 ml H2O, 5 g of ferrous sulfate heptahydrate was added, and the volume was brought to 100 ml with H2O. Test supernatant (0.5 ml) and H2O (0.5 ml) were mixed and incubated at 25° C., and the absorbance read at A660 nm.
To determine whether the Na+-K+-ATPase is involved in the mechanism of action of CA and curcumin, the ability of these agents to inhibit the in vitro activity of the purified enzyme was assayed.

SMILES: CC(=O)O[C@@H]1C[C@@]23C[C@@]24CC[C@H](O[C@@H]2OC[C@@H](O)[C@H](O)[C@H]2O)C(C)(C)[C@@H]4CC[C@H]3[C@]2(C)C[C@@H]3O[C@]4(C[C@@H](C)[C@@H]3[C@@]12C)O[C@H](O)[C@@]1(C)O[C@@H]41 [ACT, actein, reference compound]
% cell proliferation ([1]; 5 μg/ml): 114.4%
% cell proliferation ([1]; 10 μg/ml): 116.1%
% cell proliferation ([1]; 15 μg/ml): 108.0%
% cell proliferation ([1]; 20 μg/ml): 98.1%

IC50, concentration that caused 50% inhibition of cell proliferation [2]: ~100 µg/mL
IC50 [2]: 218 µM
SMILES: O=C(O[C@@H]1Cc2c(O)cc(O)cc2O[C@@H]1c1cc(O)c(O)c(O)c1)c1cc(O)c(O)c(O)c1 [EGCG, reference compound]

IC50 ([2]; Homo sapiens): 2 µg/mL and 5.4 µM
IC50 [3]: 2.3 µg/mL and 6.2 µM
IC50 (Na+-K+-ATPase): ~2 µM
SMILES: COc1cc(/C=C/C(=O)CC(=O)/C=C/c2ccc(O)c(OC)c2)ccc1O [curcumin]

IC50 ([2]; Homo sapiens): 4 µg/mL and 17.5 µM
SMILES: Oc1ccc(C=Cc2cc(O)cc(O)c2)cc1 [resveratrol, reference compound]

IC50 ([2]; Homo sapiens): ~56 µg/mL and ~150 µM
SMILES: O=C(/C=C/c1ccc(O)c(O)c1)O[C@H](Cc1ccc(O)c(O)c1)C(=O)O [rosmarinic acid, reference compound]
